Measured values taken from patent US9624246B2, “Pyridazinone macrocycles as IRAK inhibitors and uses thereof” (Merck Patent GmbH, priority 2015, dated 2017).
pIC50: −log10 of the molar value.

Key:
[1] = molecular target: human purified recombinant IRAK1 (His-TEV-IRAK1 (194-712)) (Homo sapiens (Human), UniProt P51617); experiment: IRAK1 enzymatic assay (ADP-Glo luminescence); format: biochemical; settings: ATP 1 μM, 2 h at RT
Protocol: IRAK1 is a human purified recombinant enzyme (His-TEV-IRAK1 (194-712))
In this assay, IRAK1 hydrolyses ATP and autophosphorylates. Measurement of IRAK-1 inhibition is performed in 384-well format based on luminescence assay (ADP-Glo™ Kinase Assay from Promega). Purified human recombinant IRAK1 (0.3 μg/ml) and serial diluted compounds in DMSO (range of concentration from 10 μM to 0.5 nM) or controls (1% DMSO) are incubated for 15 minutes at RT in assay buffer containing 50 mM Hepes pH 7.0, Fatty acid-free BSA 0.1%, Dithiothreitol (DTT) 2 mM, MgCl2 10 mM, EGTA 0.5 mM, Triton X-100 0.01%. The kinase reaction is then initiated by the addition of ATP at a concentration of 1 μM. After 2 hours of incubation at RT, the reaction is stopped and the unconsumed ATP depleted by the addition of ADP-Glo™ Reagent according to supplier instructions. After 40 minutes of incubation at RT, the Kinase Detection Reagent is then added to the assay plate according to supplier instructions. After 20 minutes of incubation at RT, the luminescence signal is measured with a luminometer (PerkinElmer Envision or equivalent reader).

[2] = molecular target: human purified recombinant IRAK4 (His-TEV-IRAK4 (1-460)) (Homo sapiens (Human), UniProt Q9NWZ3); experiment: IRAK4 enzymatic assay (ADP-Glo luminescence); format: biochemical; settings: ATP 2 μM, STK1-biotin peptide 300 nM, 2 h at RT
Protocol: IRAK4 is a human purified recombinant enzyme (His-TEV-IRAK4 (1-460)).
In this assay, IRAK4 hydrolyses ATP, autophosphorylates and phosphorylates a Serine/Threonine generic peptidic substrate (STK: 61ST1BLC from CisBio International). Measurement of IRAK-4 inhibition is performed in 384-well format based on a luminescence assay (ADP-Glo™ Kinase Assay from Promega). Purified human recombinant IRAK4 (0.3 μg/ml) and serial diluted compounds in DMSO (range of concentration from 10 μM to 0.5 nM) or controls (1% DMSO) are incubated for 15 minutes at RT in assay buffer containing 50 mM Hepes pH 7.0, Fatty acid-free BSA 0.1%, Dithiothreitol (DTT) 2 mM, MgCl2 10 mM, EGTA 0.5 mM, Triton X-100 0.01%, MnCl2 5 mM. The kinase reaction is then initiated by the addition of ATP (2 μM) and the peptidic substrate STK1-biotin peptide (300 nM). After 2 hours of incubation at RT, the reaction is stopped and the unconsumed ATP depleted by the addition of ADP-Glo™ Reagent according to supplier instructions. After 40 minutes of incubation at RT, the Kinase Detection Reagent is then added to the assay plate according to supplier instructions. After 20 minutes of incubation at RT, the luminescence signal is measured with a plate-reading luminometer (PerkinElmer Envision or equivalent reader).

human purified recombinant IRAK4 (His-TEV-IRAK4 (1-460)), sequence (Q9NWZ3 whole entry): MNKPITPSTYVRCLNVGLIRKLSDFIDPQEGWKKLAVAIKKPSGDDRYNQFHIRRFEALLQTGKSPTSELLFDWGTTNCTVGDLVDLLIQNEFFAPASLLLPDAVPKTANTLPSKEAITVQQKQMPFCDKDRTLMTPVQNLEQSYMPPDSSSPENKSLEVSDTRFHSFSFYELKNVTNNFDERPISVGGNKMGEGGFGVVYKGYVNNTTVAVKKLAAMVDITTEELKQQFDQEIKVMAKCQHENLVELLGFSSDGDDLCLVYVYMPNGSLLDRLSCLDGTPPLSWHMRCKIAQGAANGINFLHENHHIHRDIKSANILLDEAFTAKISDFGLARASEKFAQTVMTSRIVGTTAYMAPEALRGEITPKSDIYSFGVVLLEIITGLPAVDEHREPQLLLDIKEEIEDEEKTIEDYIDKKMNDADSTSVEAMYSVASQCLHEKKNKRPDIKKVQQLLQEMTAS
human purified recombinant IRAK1 (His-TEV-IRAK1 (194-712)), sequence (P51617 194-712): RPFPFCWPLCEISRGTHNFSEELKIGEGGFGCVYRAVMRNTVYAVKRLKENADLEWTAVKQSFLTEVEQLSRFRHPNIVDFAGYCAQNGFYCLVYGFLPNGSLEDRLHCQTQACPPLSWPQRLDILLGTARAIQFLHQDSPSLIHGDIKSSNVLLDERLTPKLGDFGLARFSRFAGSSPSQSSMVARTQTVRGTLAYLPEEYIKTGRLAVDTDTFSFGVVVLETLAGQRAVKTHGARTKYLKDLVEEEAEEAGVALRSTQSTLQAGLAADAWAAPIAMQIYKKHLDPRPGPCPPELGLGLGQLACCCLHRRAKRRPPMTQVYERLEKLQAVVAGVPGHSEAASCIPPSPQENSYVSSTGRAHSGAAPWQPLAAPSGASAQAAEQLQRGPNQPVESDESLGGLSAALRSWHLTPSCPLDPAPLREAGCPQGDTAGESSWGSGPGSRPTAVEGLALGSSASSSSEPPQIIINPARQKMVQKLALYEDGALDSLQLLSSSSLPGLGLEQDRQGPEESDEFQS

SMILES	pIC50 [1]	pIC50 [2]
Cn1cc2c(n1)C(=O)NCCOc1ccc(=O)n(n1)Cc1cccc(c1)C(=O)N2 [Compound 4, 12-methyl-19-oxa-1,9,12,13,16,24-hexaazatetracyclo[18.3.1.1^3,7.0^10,14]pentacosa-3,5,7(25),10,13,20(24),21-heptaene-8,15,23-trione]	< 5.30	< 5.30
Cn1cc2c(n1)C(=O)NCCCOc1ccc(=O)n(n1)Cc1cccc(n1)C(=O)N2 [Compound 8, 12-methyl-20-oxa-1,9,12,13,16,25,26-heptaazatetracyclo[19.3.1.1^3,70^10,14]hexacosa-3,5,7(26),10,13,21(25),22-heptaene-8,15,24-trione]	< 5.30	> 7.00
O=C1Nc2cn(C3CCOCC3)nc2C(=O)NCCCOc2ccc(=O)n(n2)Cc2cccc1n2 [Compound 9, 12-(oxan-4-yl)-20-oxa-1,9,12,13,16,25,26-heptaazatetracyclo[19.3.1.1^3,7.0^10,14]hexacosa-3,5,7(26),10,13,21(25),22-heptaene-8,15,24-trione]	< 5.30	> 7.00
CC(C)(C)n1cc2c(n1)C(=O)NCCCOc1ccc(=O)n(n1)Cc1cccc(n1)C(=O)N2 [Compound 10, 12-tert-butyl-20-oxa-1,9,12,13,16,25,26-heptaazatetracyclo[19.3.1.1^3,7.0^10,14]hexacosa-3,5,7(26),10,13,21(25),22-heptaene-8,15,24-trione]		5.30 to 6.00
O=C1Nc2cn(C3CCOCC3)nc2C(=O)NCC(O)COc2ccc(=O)n(n2)Cc2cccc1c2 (stereo not drawn) [Compound 11, 18-hydroxy-12-(oxan-4-yl)-20-oxa-1,9,12,13,16,25-hexaazatetracyclo[19.3.1.1^3,7.0^10,14]hexacoa-3,5,7(26),10,13,21(25),22-heptaene-8,15,24-trione]	6.00 to 7.00	> 7.00
Cn1cc2c(n1)C(=O)NCC(O)COc1ccc(=O)n(n1)Cc1cccc(c1)C(=O)N2 (stereo not drawn) [Compound 12, 18-hydroxy-12-methyl-20-oxa-1,9,12,13,16,25-hexaazatetracyclo[19.3.1.1^3,7.0^10,14]hexacosa-3,5,7(26),10,13,21(25),22-heptaene-8,15,24-trione]	5.30 to 6.00	> 7.00
Cn1cc2c(n1)C(=O)NCc1cc(ccn1)-c1ccc(=O)n(n1)Cc1cccc(c1)C(=O)N2 [Compound 13, 17-methyl-6,14,17,18,21,24,29-heptaazapentacyclo[21.3.1.1^2,6.1^8,12.0^15,19]nonacosa-1(27),2(29),3,8,10,12(28),15,18,23,25-decaene-5,13,20-trione]	6.00 to 7.00	> 7.00
Cn1cc2c(n1)C(=O)NCCc1cccc(c1)-c1ccc(=O)n(n1)Cc1cccc(c1)C(=O)N2 [Compound 14, 17-methyl-6,14,17,18,21,30-hexaazapentacyclo[22.3.1.1^2,6.1^8,12.0^15,19]triaconta-1(28),2(30),3,8,10,12(29),15,18,24,26-decaene-5,13,20-trione]	6.00 to 7.00	> 7.00
Cc1cc2n(n1)CCc1cccc(c1)-c1ccc(=O)n(n1)Cc1cccc(c1)C(=O)N2 [Compound 15, 17-methyl-6,14,18,19,28-pentaazapentacyclo[20.3.1.1^2,6.1^8,12.0^15,19]octacosa-1(26),2(28),3,8,10,12(27)15,17,22,24-decaene-5,13-dione]	< 5.30	< 5.30

Results, then the compound that gave them:

pIC50 [1]	pIC50 [2]	SMILES
6.00 to 7.00	> 7.00	Cn1cc2c(n1)C(=O)NCCCOc1ccc(=O)n(n1)Cc1cccc(c1)C(=O)N2 [Compound 1, 12-methyl-20-oxa-1,9,12,13,16,25-hexaazatetracyclo[19.3.1.1^3,70^10,14]hexacosa-3,5,7(26),10,13,21(25),22-heptaene-8,15,24-trione]
> 7.00	> 7.00	Cn1cc2c(n1)C(=O)NCCn1cc(cn1)-c1ccc(=O)n(n1)Cc1cccc(c1)C(=O)N2 [Compound 2, 12-methyl-4,5,8,11,12,15,23,27-octaazapentacyclo[21.3.1.1^2,5.1^17,210^10,14]nonacosa-1(27),2(29) 3,10,13,17(28),18,20,25-nonaene-9,16,24-trione]
6.00 to 7.00	> 7.00	Cn1cc2c(n1)C(=O)NCc1cncc(c1)-c1ccc(=O)n(n1)Cc1cccc(c1)C(=O)N2 [Compound 3, 17-methyl-6,14,17,18,21,25,29-heptaazapentacyclo[21.3.1.1^2,61^8,12.0^15,19]nonacosa-1(27),2(29), 3,8,10,12(28),15,18,23,25-decaene-5,13,20-trione]
6.00 to 7.00	> 7.00	O=C1Nc2cn(C3CCOCC3)nc2C(=O)NCCCOc2ccc(=O)n(n2)Cc2cccc1c2 [Compound 6, 12-(oxan-4-yl)-20-oxa-1,9,12,13,16,25-hexaazatetracyclo[19.3.1.1^3,7.0^10,14]hexacosa-3,5,7(26),10,13,21(25),22-heptaene-8,15,24-trione]
6.00 to 7.00	> 7.00	CC(C)(C)n1cc2c(n1)C(=O)NCCCOc1ccc(=O)n(n1)Cc1cccc(c1)C(=O)N2 [Compound 7, 12-tert-butyl-20-oxa-1,9,12,13,16,25-hexaazatetracyclo[19.3.1.1^3,7.0^10,14]hexacosa-3,5,7(26),10,13,21(25),22-heptaene-8,15,24-trione]
